Laboratory results taken from PubChem BioAssay AID330 (DTP/NCI, 2004).
“And” between values parts separate entries of the source, which are not always exact repeats. Identical values can stand only once. Inconclusive results and toxic doses are left out.

Tested on: P388 leukemia ip, CD2F1 mice, survival T/C
Assay: NCI In Vivo Anticancer Drug Screen. Data for tumor model P388 Leukemia (intraperitoneal) in CD2F1 (CDF1) mice
Conditions: endpoint: median survival time, higher = longer survival
How it was run: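 Mice carrying the transplanted tumor received test compound or vehicle. Survival was recorded in each group, and the value is the treated-group measurement divided by that of the vehicle-treated control group.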

[1] = dose: 50.0 mg/kg/injection, schedule: Q01DX005 (ip), vehicle: Klucel (hydroxypropylcellulose) (HPC)
[2] = dose: 100.0 mg/kg/injection, schedule: Q01DX005 (ip), vehicle: Klucel (hydroxypropylcellulose) (HPC)
[3] = dose: 100.0 mg/kg/injection, schedule: Q01DX009 (ip), vehicle: saline
[4] = dose: 200.0 mg/kg/injection, schedule: Q01DX009 (ip), vehicle: saline
[5] = dose: 400.0 mg/kg/injection, schedule: Q01DX009 (ip), vehicle: saline
[6] = dose: 200.0 mg/kg/injection, schedule: Q04DX003 (ip), vehicle: Klucel (hydroxypropylcellulose) (HPC)
[7] = dose: 400.0 mg/kg/injection, schedule: Q04DX003 (ip), vehicle: Klucel (hydroxypropylcellulose) (HPC)
[8] = dose: 100.0 mg/kg/injection, schedule: Q04DX003 (ip), vehicle: saline with Tween-80
[9] = dose: 200.0 mg/kg/injection, schedule: Q04DX003 (ip), vehicle: saline with Tween-80
[10] = dose: 400.0 mg/kg/injection, schedule: Q04DX003 (ip), vehicle: saline with Tween-80
[11] = dose: 50.0 mg/kg/injection, schedule: Q01DX009 (ip), vehicle: saline
[12] = dose: 6.25 mg/kg/injection, schedule: Q01DX009 (ip), vehicle: water
[13] = dose: 12.5 mg/kg/injection, schedule: Q01DX009 (ip), vehicle: water
[14] = dose: 25.0 mg/kg/injection, schedule: Q01DX009 (ip), vehicle: water
[15] = dose: 50.0 mg/kg/injection, schedule: Q01DX009 (ip), vehicle: water
[16] = dose: 25.0 mg/kg/injection, schedule: Q01DX005 (ip), vehicle: Klucel (hydroxypropylcellulose) (HPC)
[17] = dose: 50.0 mg/kg/injection, schedule: Q01DX009 (ip), vehicle: saline with Tween-80
[18] = dose: 50.0 mg/kg/injection, schedule: Q01DX005 (ip), vehicle: saline with Tween-80
[19] = dose: 100.0 mg/kg/injection, schedule: Q01DX005 (ip), vehicle: saline with Tween-80

O=C1C[CH]([Ge](=[O])[O][Ge](=[O])[CH]2CC(=O)NC(=O)N2)NC(=O)N1 (stereo unspecified)
T/C (dose: 15.0 mg/kg/injection, schedule: Q01DX005 (ip), vehicle: water): 97 % of control
T/C (dose: 30.0 mg/kg/injection, schedule: Q01DX005 (ip), vehicle: water): 99 % of control
T/C (dose: 60.0 mg/kg/injection, schedule: Q01DX005 (ip), vehicle: water): 111 % of control
T/C (dose: 120.0 mg/kg/injection, schedule: Q01DX005 (ip), vehicle: water): 103 % of control and 118 % of control
T/C (dose: 240.0 mg/kg/injection, schedule: Q01DX005 (ip), vehicle: water): 95 % of control

O=C(OCc1ccccc1)ON1C(=O)C2C3C=CC(C3)C2C1=O (stereo unspecified)
T/C [1]: 115 % of control
T/C [2]: 110 % of control

OCC1OC(OC2(CO)OC(CO)C(O)C2O)C(O)C(O)C1O (stereo unspecified)
T/C (dose: 4.0 mg/kg/injection, schedule: Q01DX005 (ip), vehicle: saline): 98 % of control
T/C (dose: 8.0 mg/kg/injection, schedule: Q01DX005 (ip), vehicle: saline): 96 % of control
T/C (dose: 32.0 mg/kg/injection, schedule: Q01DX005 (ip), vehicle: saline): 96 % of control
T/C (dose: 64.0 mg/kg/injection, schedule: Q01DX005 (ip), vehicle: saline): 97 % of control
T/C [3]: 97 % of control
T/C (dose: 128.0 mg/kg/injection, schedule: Q01DX005 (ip), vehicle: saline): 99 % of control
T/C [4]: 97 % of control
T/C (dose: 256.0 mg/kg/injection, schedule: Q01DX005 (ip), vehicle: saline): 98 % of control
T/C [5]: 98 % of control
T/C (dose: 512.0 mg/kg/injection, schedule: Q01DX005 (ip), vehicle: saline): 100 % of control
T/C (dose: 1024.0 mg/kg/injection, schedule: Q01DX005 (ip), vehicle: saline): 106 % of control
T/C (dose: 2048.0 mg/kg/injection, schedule: Q01DX005 (ip), vehicle: saline): 108 % of control

Cc1cc(O)ccc1Nc1ccc(N(CCCl)CCCl)cc1
T/C [6]: 166 % of control
T/C [7]: 154 % of control

C=C(C)CSc1ncnc2nc[nH]c12
T/C [8]: 104 % of control
T/C [9]: 100 % of control
T/C [10]: 100 % of control

CC(=O)OCc1ccc[n+]([O-])c1
T/C (dose: 25.0 mg/kg/injection, schedule: Q01DX009 (ip), vehicle: saline): 99 % of control and 96 % of control
T/C [11]: 99 % of control and 103 % of control
T/C [3]: 99 % of control and 103 % of control
T/C [4]: 99 % of control and 86 % of control
T/C [5]: 99 % of control and 109 % of control

CCN(CC)CCCC(C)NC(C)CCCN(CC)CC (stereo unspecified)
T/C (dose: 3.13 mg/kg/injection, schedule: Q01DX009 (ip), vehicle: water): 112 % of control
T/C [12]: 112 % of control
T/C [13]: 99 % of control
T/C [14]: 108 % of control
T/C [15]: 104 % of control

CCN(CC)c1cc(C(=O)O)cc(N(CC)CC)n1
T/C (dose: 6.25 mg/kg/injection, schedule: Q01DX005 (ip), vehicle: sodium bicarbonate): 104 % of control
T/C (dose: 12.5 mg/kg/injection, schedule: Q01DX005 (ip), vehicle: Klucel (hydroxypropylcellulose) (HPC)): 98 % of control and 100 % of control
T/C (dose: 12.5 mg/kg/injection, schedule: Q01DX005 (ip), vehicle: sodium bicarbonate): 114 % of control
T/C [16]: 98 % of control and 106 % of control
T/C (dose: 25.0 mg/kg/injection, schedule: Q01DX005 (ip), vehicle: sodium bicarbonate): 120 % of control
T/C [1]: 100 % of control and 120 % of control and 123 % of control
T/C (dose: 50.0 mg/kg/injection, schedule: Q01DX005 (ip), vehicle: sodium bicarbonate): 121 % of control

CCn1c(C)nc([N+](=O)[O-])c1Sc1ncn[nH]1
T/C [16]: 118 % of control
T/C [1]: 115 % of control and 120 % of control
T/C [2]: 121 % of control

CCCN1c2c3c(O)c4c(O)c(C)c5c(c4c2O)C(=O)C(C)(O/C=C/C(OC)C(C)C(OC(C)=O)C(C)C(O)C(C)C(O)C(C)/C=C/C=C(/C)C(=O)N3C1C)O5 (stereo unspecified)
T/C (dose: 25.0 mg/kg/injection, schedule: Q01DX009 (ip), vehicle: Klucel (hydroxypropylcellulose) (HPC)): 96 % of control
T/C (dose: 50.0 mg/kg/injection, schedule: Q01DX009 (ip), vehicle: Klucel (hydroxypropylcellulose) (HPC)): 101 % of control
T/C (dose: 100.0 mg/kg/injection, schedule: Q01DX009 (ip), vehicle: Klucel (hydroxypropylcellulose) (HPC)): 93 % of control
T/C (dose: 200.0 mg/kg/injection, schedule: Q01DX009 (ip), vehicle: Klucel (hydroxypropylcellulose) (HPC)): 90 % of control

CCOP(=O)(O)OCc1ccccc1.[Ti]
T/C (dose: 50.0 mg/kg/injection, schedule: Q01DX001 (ip), vehicle: Klucel (hydroxypropylcellulose) (HPC)): 90 % of control
T/C (dose: 100.0 mg/kg/injection, schedule: Q01DX001 (ip), vehicle: Klucel (hydroxypropylcellulose) (HPC)): 97 % of control
T/C (dose: 200.0 mg/kg/injection, schedule: Q01DX001 (ip), vehicle: Klucel (hydroxypropylcellulose) (HPC)): 93 % of control

NC1CN2CCC1CC2 (stereo unspecified)
T/C [11]: 104 % of control
T/C [3]: 107 % of control
T/C [4]: 98 % of control

Cc1ccnc(N)c1N
T/C (dose: 3.13 mg/kg/injection, schedule: Q01DX009 (ip), vehicle: other): 89 % of control
T/C (dose: 6.25 mg/kg/injection, schedule: Q01DX009 (ip), vehicle: other): 96 % of control
T/C (dose: 12.5 mg/kg/injection, schedule: Q01DX009 (ip), vehicle: other): 109 % of control

CNC(=O)Oc1cccc2c(OC3OC(CO)C(O)C(O)C3O)cccc12 (stereo unspecified)
T/C (dose: 100.0 mg/kg/injection, schedule: Q04DX003 (ip), vehicle: Klucel (hydroxypropylcellulose) (HPC)): 97 % of control
T/C [6]: 106 % of control
T/C [7]: 101 % of control

O=[N+]([O-])c1ccc2c(c1)N=Cc1ccccc1NCCNc1ccccc1C=N2
T/C [11]: 95 % of control
T/C [3]: 87 % of control and 90 % of control
T/C [4]: 92 % of control and 93 % of control

CCCCNC(=S)N/N=C/c1ccccn1
T/C (dose: 25.0 mg/kg/injection, schedule: Q01DX009 (ip), vehicle: saline with Tween-80): 101 % of control
T/C [17]: 94 % of control
T/C (dose: 100.0 mg/kg/injection, schedule: Q01DX009 (ip), vehicle: saline with Tween-80): 111 % of control

N#C/C(=N\Nc1ccc(Cl)cc1)C(=O)C1CC1
T/C (dose: 15.0 mg/kg/injection, schedule: Q01DX005 (ip), vehicle: Klucel (hydroxypropylcellulose) (HPC)): 105 % of control
T/C (dose: 30.0 mg/kg/injection, schedule: Q01DX005 (ip), vehicle: Klucel (hydroxypropylcellulose) (HPC)): 98 % of control
T/C (dose: 60.0 mg/kg/injection, schedule: Q01DX005 (ip), vehicle: Klucel (hydroxypropylcellulose) (HPC)): 99 % of control and 91 % of control

CCOC(=O)c1c(N)[nH]c(SSc2[nH]c(N)c(C(=O)OCC)c2C(=O)OCC)c1C(=O)OCC
T/C (dose: 75.0 mg/kg/injection, schedule: Q01DX009 (ip), vehicle: saline): 118 % of control
T/C (dose: 300.0 mg/kg/injection, schedule: Q01DX009 (ip), vehicle: saline): 100 % of control

O=S(=O)(OCCCl)c1c(Cl)c(Cl)c(Cl)c(Cl)c1Cl
T/C (dose: 12.5 mg/kg/injection, schedule: Q01DX005 (ip), vehicle: saline with Tween-80): 95 % of control
T/C (dose: 25.0 mg/kg/injection, schedule: Q01DX005 (ip), vehicle: saline with Tween-80): 92 % of control
T/C [18]: 92 % of control and 93 % of control
T/C [19]: 96 % of control

c1cc2c(ncn3nnnc23)[nH]1
T/C [12]: 91 % of control
T/C [13]: 107 % of control
T/C [14]: 108 % of control
T/C [15]: 109 % of control
T/C (dose: 100.0 mg/kg/injection, schedule: Q01DX009 (ip), vehicle: water): 118 % of control

COC(=O)C1=NC(=N)N=C(C(=O)OC)C12C(=O)Cc1ccccc12 (stereo unspecified)
T/C (dose: 60.0 mg/kg/injection, schedule: Q01DX005 (ip), vehicle: saline with Tween-80): 103 % of control
T/C (dose: 120.0 mg/kg/injection, schedule: Q01DX005 (ip), vehicle: saline with Tween-80): 100 % of control

COc1ccc2c(c1)CCC1=C2C=C[P+]1(C)C
T/C [17]: 94 % of control

CC(=N/N=C(N)N)/C(C)=N/N=C(N)N
T/C [18]: 104 % of control
T/C [19]: 110 % of control

Nc1cccc2c1C(=O)c1cccc(Cl)c1C2=O
T/C [8]: 104 % of control
T/C [9]: 104 % of control
T/C [10]: 100 % of control

O=[N+]([O-])c1ccc(C(Nc2nncs2)Nc2nncs2)c([N+](=O)[O-])c1
T/C [1]: 97 % of control
T/C [2]: 96 % of control
T/C (dose: 200.0 mg/kg/injection, schedule: Q01DX005 (ip), vehicle: Klucel (hydroxypropylcellulose) (HPC)): 100 % of control
